Test results taken from article PMC4076215, “Nickel(II) Complex of Polyhydroxybenzaldehyde N4-Thiosemicarbazone Exhibits Anti-Inflammatory Activity by Inhibiting NF-κB Transactivation” (PLoS ONE, 2014).
In brackets after ≈: the same amount, converted by molar mass.

Legend:
ORAC antioxidant assay = type: physicochemical
Method: ORAC assay was performed based on reported procedures with slight modifications. Chemicals used such as fluorescein sodium salt, AAPH (2,2′-Azobis(2-methylpropionamidine) dihydrochloride), quercetin dehydrate and trolox ((±)-6-Hydroxy-2,5,7,8-tetramethylchromane-2-carboxylic acid) were purchased from Sigma-Aldrich. Compounds were diluted to a final concentration of 100 µg/ml, with total reaction volume of 200 µl. The assay was performed in a 96-well black microplate, with 25 µl of samples, standard (trolox), blank (solvent/PBS) or positive control (quercetin). Subsequently, 150 µl of working fluorescein solution was added to each well. The plate was incubated at 37°C for at least 5 min. Then, 25 µl of AAPH working solution was then added to the wells to make a total volume of 200 µl. […] Data were collected every 2 min for a duration of 2 h, and were analyzed by calculating the differences of area under fluorescence decay curve (AUC) of samples and blank. The values were expressed as Trolox equivalent (TE).
ROS may amplify inflammatory responses via up-regulation or activation of certain genes/transcription factors, such as NF-κB. […] Therefore, we conducted ORAC assays to investigate the antioxidant capacity of complex 5. The ORAC assay uses peroxyl radical as pro-oxidant and the antioxidant activity is quantified via area under curve (AUC). We included quercetin, a known antioxidant, as a positive control.

HeLa S3 cells = assay: Cell proliferation (MTT) assay, HeLa S3; details: for IC50 (cell viability, MTT): HeLa S3 cells, 48 h treatment; for IC50: Homo sapiens, HeLa S3, 48 h, read-out: IC50 (cell viability, MTT)
Method: (§1) A total number of 1.0×10^4 cells per well were seeded into a 96-well plate and incubated overnight at 37°C in 5% CO2. The next day, the cells were treated with a two-fold serial dilution of compounds. MTT assays were performed as described [27]. After 48 h, (4,5-dimethylthiazol-2-yl-2,5-diphenyltetrazoliumbromide) was added at 2 mg/ml. After 3 h of incubation at 37°C in 5% CO2, DMSO was added to dissolve the formazan crystals. The plates were then read in Chameleon multitechnology microplate reader (Hidex, Turku, Finland) at 570 nm absorbance. The ratio of the absorbance of treated cells to the absorbance of DMSO-treated control cells was determined as percentage cell viability.
(§2) To examine whether synthesized Ni(II) thiosemicarbazone ligands or Ni(II)-phosphine complexes were cytotoxic, we treated RAW264.7 (leukemic monocyte macrophage) and HeLa S3 (cervical adenocarcinoma) cells with these compounds for 48 h. The cell viability was determined with MTT assays [33].

RAW264.7 cells = assay: Cell proliferation (MTT) assay, RAW264.7; details: for IC50 (cell viability, MTT): RAW264.7 cells, 48 h treatment; for IC50: Mus musculus, RAW264.7, 48 h, read-out: IC50 (cell viability, MTT)
Method: as §1, §2

[1] = test system: NF-κB p65 nuclear translocation; assay: NF-κB p65 immunofluorescence staining, LPS-stimulated RAW264.7; type: cell-based; details: RAW264.7, 25 µg/ml pre-treatment 4 h, LPS 1 h
Method: NF-κB Activation Kits (Thermo Scientific) were used as previously described. Cells were pretreated with compounds for 4 h before being stimulated with lipopolysaccharide (LPS) ortumour necrosis factor α (TNFα) for 1 h. Cells were then fixed and permeabilized before probing with NF-κB p65 antibody for 1 h. Staining solution (containing DyLight 488 Goat Anti-Rabbit and Hoechst dye) was then added and incubated for 1 h. The plate with stained cells was evaluated using a Cellomics ArrayScan HCS Reader (Cellomics, PA, USA). Data were captured, extracted and analyzed with ArrayScan II Data Acquisition and Data Viewer version 3.0 (Cellomics).
NF-κB acts as a central mediator of inflammatory responses and compounds that inhibit NF-κB activation are potential anti-inflammatory agents. To evaluate this, we performed immunofluorescence staining of NF-κB p65. […] In response to LPS stimulation, NF-κB p65 translocated from cytoplasm into the nucleus, implying NF-κB activation (Figure 3). […] Moreover, we observed that complex 6–8 required higher concentration (>50 µg/ml) to elicit similar inhibitory effect (data not shown).
Figure 3 Effect of N4-substituteted thiosemicarbazone complexes on LPS-induced NF-κB nuclear transloction in RAW264.7 macrophage cells. Staining of Hoechst (nucleus) and NF-κB in RAW264.7 cells. […]

[2] = test system: carrageenan-induced paw edema; assay: Carrageenan-induced paw edema mouse model; type: in vivo, C57BL/6 mice; details: 2.0 mg/kg i.p., 1 h after carrageenan; control 7.3±0.8 mm
Method: Male C57BL/6 mice at age 8–12 weeks old were from Jackson Laboratories, USA. Mice were administrated intraperitoneally (i.p.) with two different doses of complex 5 (2.5 mg/kg and 5 mg/kg). Negative control groups were i.p. injected with 200 µl of vehicle (50% v/v ethanol). A standard drug 2 mg/kg dexamethasone (Sigma) was included in the study. After 1 h, paw edema was induced by injecting 50 µl of 1% carrageenan (Sigma) through the plantar tissue at the right hind paw of each mouse. The thickness of right paw of each mouse was measured at 1, 3 and 5 h after carrageenan was administered. Four animals per group were tested (n = 4). Quantification of right hind paw thickness were analyzed for statistical significance using Student's t-test. Animals were housed in individually ventilated cages in specific pathogen free facility, Animal Experimental Unit, University of Malaya. All efforts were made to minimize animal suffering and the number of animals used. At the end of the experiment, mice were euthanized by CO2 asphyxiation. Animal work was approved by the Faculty of Medicine Animal Care and Use Committee (FOMIACUC) at University of Malaya and reported according to ARRIVE guidelines.
To test the in vivo inhibitory effect of complex 5 on inflammation, we administrated two doses of complex 5 (2.5 mg/kg and 5.0 mg/kg) into C57BL/6 wild type mice through i.p. injection. For a positive control, we performed i.p. injection of 2.0 mg/kg dexamethasone into the mice. After 1 h, paw edema in the mice was induced by injecting 1% carrageenan to the right hind paw. The paw sizes were measured at 1, 3 and 5 h after edema induction. The edema formation at the mice paw was due to inflammatory response causing the accumulation of histamine, serotonin, prostaglandin and other secreted inflammatory mediators.
Male C57BL/6 mice at age of 8-12 weeks old were non-injected or injected i.p. with 2.5 mg/kg or 5.0 mg/kg complex 5, whereas for positive controls, mice were injected i.p. with 2.0 mg/kg dexamethasone. After 1 h, acute inflammation was induced in the right hind paw of each mice by injecting 50 µl of carrageenan. The size of the paw were measured after (A) 1 h or, (B) 1, 3 and 5 h post carrageenan injection. Shown were mean ±SD (n = 4). Statistical analysis was performed with Student's t-test.

IC50 (HeLa S3 cells) [µg/mL]	Compound	Antioxidant capacity, Trolox equivalent (ORAC antioxidant assay) [µM TE per 100 µM]	IC50 (cell viability, MTT) (HeLa S3 cells) [µg/mL]	IC50 (cell viability, MTT) (RAW264.7 cells) [µg/mL]	IC50 (RAW264.7 cells) [µg/mL]	Inhibition of LPS-mediated NF-κB p65 nuclear translocation [1]	Paw size [2] [mm]
	Oc1cccc2c1[O][Ni-2]1([P+](c3ccccc3)(c3ccccc3)c3ccccc3)[S]C(Nc3ccccc3)=N[N+]1=C2 (stereo not drawn) [complex 7]	9.37±1.14	>100	42.44 ± 4.17			
> 100	CNC(=S)N/N=C/c1cccc(O)c1O [ligand 2]	8.23±0.43			27.8 ± 0.96 (≈ 124 µM)		
	O=c1c(O)c(-c2ccc(O)c(O)c2)oc2cc(O)cc(O)c12 [Quercetin, quercetin dehydrate, reference compound]	24.41±0.35					
> 100	NC(=S)N/N=C/c1cccc(O)c1O [ligand 1]	5.18±0.05			22.8 ± 1.67 (≈ 108 µM)	did not affect NF-κB translocation	
	CNC(=S)NN=Cc1cccc(O)c1[O-].[Cl-].[Ni+2].c1ccc(P(c2ccccc2)c2ccccc2)cc1 [complex 6, (6-Hydroxy-2-{[2-(N-methylcarbamothiolyl)hydrazin-1-ylidene-[kappa]2N1,S]methyl}phenolato-[kappa]O1)(triphenylphosphane-[kappa]P)nickel(II) chloride]	15.65±0.89	77.55 ± 1.56	37.73 ± 3.62			
> 100	Oc1cccc(/C=N/NC(=S)Nc2ccccc2)c1O [ligand 3]	9.71±0.77			31.5 ± 1.82 (≈ 110 µM)		
	C[C@@H]1C[C@H]2[C@@H]3CCC4=CC(=O)C=C[C@]4(C)[C@@]3(F)[C@@H](O)C[C@]2(C)[C@@]1(O)C(=O)CO [dexamethasone, reference compound]						4.6±0.4
	CCNC1=N[N+]2=Cc3cccc(O)c3[O][Ni-2]2([P+](c2ccccc2)(c2ccccc2)c2ccccc2)[S]1 (stereo not drawn) [complex 8]	13.34±1.49	>100	56.31 ± 3.86			
87.2 ± 1.81 (≈ 364 µM)	CCNC(=S)N/N=C/c1cccc(O)c1O [ligand 4]	7.54±1.61			19.4 ± 1.07 (≈ 80.9 µM)		
